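Cultured in 96-well plates, cells were exposed to test compound for 48 hours across five concentrations. The concentration for 50% growth inhibition is given as GI50.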 Calls of active or inactive are those of the source. Rule as the data show it: active = GI50 up to about 1.1 µM and inactive = higher.
Columns and labels:
Test in all cases: DTP human tumour cell line panel, 48 h
786-0 = system: 786-0
A498 = system: A498
A549 = system: A549
ACHN = system: ACHN
CCRF-CEM = system: CCRF-CEM
COLO 205 = system: COLO 205
DLD-1 = system: DLD-1
DMS-114 = system: DMS-114
DMS-273 = system: DMS-273
EKVX = system: EKVX
HCC 2998 = system: HCC 2998
HCT-116 = system: HCT-116
HCT-15 = system: HCT-15
HL-60 = system: HL-60
HOP-62 = system: HOP-62
HT-29 = system: HT-29
IGROV-1 = system: IGROV-1
K562 = system: K562
KM-20L2 = system: KM-20L2
LOX IMVI = system: LOX IMVI
LXFL 529 = system: LXFL 529
M14 = system: M14
M19-MEL = system: M19-MEL
MOLT-4 = system: MOLT-4
Malme-3M = system: Malme-3M
NCI-H226 = system: NCI-H226
NCI-H23 = system: NCI-H23
NCI-H460 = system: NCI-H460
OVCAR-3 = system: OVCAR-3
OVCAR-4 = system: OVCAR-4
OVCAR-8 = system: OVCAR-8
RPMI-8226 = system: RPMI-8226
RXF 393 = system: RXF 393
RXF 631 = system: RXF 631
SF-268 = system: SF-268
SF-295 = system: SF-295
SF-539 = system: SF-539
SK-MEL-28 = system: SK-MEL-28
SK-MEL-2 = system: SK-MEL-2
SK-MEL-5 = system: SK-MEL-5
SN12C = system: SN12C
SNB-19 = system: SNB-19
SNB-75 = system: SNB-75
SR = system: SR
SW-620 = system: SW-620
TK-10 = system: TK-10
U-251 = system: U-251
UACC-257 = system: UACC-257
UACC-62 = system: UACC-62
UO-31 = system: UO-31
XF498 = system: XF498
HOP-92 = system: HOP-92
KM12 = system: KM12
NCI-H522 = system: NCI-H522
OVCAR-5 = system: OVCAR-5
SK-OV-3 = system: SK-OV-3
SNB-78 = system: SNB-78
CAKI-1 = system: CAKI-1

`COC(=O)CC(NC(=O)OCc1ccccc1)C(C(=O)OCc1ccccc1)C1(C)OCCO1` (stereo unspecified) was tested, and the GI50 (786-0) was 51.4 µM (inactive), the GI50 (A498) was 18.2 µM (inactive) and the GI50 (A549) was 32.4 µM (inactive). The GI50 (ACHN) was 34.9 µM (inactive), the GI50 (CCRF-CEM) was 26.6 µM (inactive) and the GI50 (COLO 205) was 18.6 µM (inactive). For the same compound, the GI50 (DLD-1) was 36.1 µM (inactive), the GI50 (DMS-114) was 23.6 µM (inactive) and the GI50 (DMS-273) was 39.5 µM (inactive). The GI50 (EKVX) was 44.4 µM (inactive), the GI50 (HCC 2998) was 61.9 µM (inactive) and the GI50 (HCT-116) was 40.4 µM (inactive). For the same compound, the GI50 (HCT-15) was 37.8 µM, the GI50 (HL-60) was 21.1 µM (inactive) and the GI50 (HOP-62) was 47.5 µM (inactive). The GI50 (HT-29) was 53.6 µM (inactive), the GI50 (IGROV-1) was 40 µM (inactive) and the GI50 (K562) was 43.4 µM (inactive). The GI50 (KM-20L2) was 45.5 µM (inactive), the GI50 (LOX IMVI) was 28.9 µM (inactive) and the GI50 (LXFL 529) was 18.8 µM (inactive). For the same compound, the GI50 (M14) was 40.7 µM (inactive), the GI50 (M19-MEL) was 30.2 µM (inactive) and the GI50 (MOLT-4) was 20.5 µM (inactive). For the same compound, the GI50 (Malme-3M) was 33.3 µM (inactive), the GI50 (NCI-H226) was 22.5 µM (inactive) and the GI50 (NCI-H23) was 26.4 µM (inactive). For the same compound, the GI50 (NCI-H460) was 34.7 µM (inactive), the GI50 (OVCAR-3) was 53.8 µM (inactive) and the GI50 (OVCAR-4) was 67.6 µM (inactive). For the same compound, the GI50 (OVCAR-8) was 25.2 µM (inactive), the GI50 (RPMI-8226) was 22.1 µM (inactive) and the GI50 (RXF 393) was 21.4 µM (inactive). For the same compound, the GI50 (RXF 631) was 34.9 µM (inactive), the GI50 (SF-268) was 50.1 µM (inactive) and the GI50 (SF-295) was 32.4 µM (inactive). The GI50 (SF-539) was 54.6 µM (inactive), the GI50 (SK-MEL-28) was 66.5 µM (inactive) and the GI50 (SK-MEL-2) was 20 µM (inactive). For the same compound, the GI50 (SK-MEL-5) was 17.5 µM (inactive), the GI50 (SN12C) was 47.4 µM (inactive) and the GI50 (SNB-19) was 50 µM (inactive). For the same compound, the GI50 (SNB-75) was 23.6 µM (inactive), the GI50 (SR) was 19.1 µM (inactive) and the GI50 (SW-620) was 47.6 µM (inactive). The GI50 (TK-10) was 57.1 µM (inactive), the GI50 (U-251) was 33.1 µM (inactive) and the GI50 (UACC-257) was 30.4 µM (inactive). The GI50 (UACC-62) was 18.7 µM (inactive), the GI50 (UO-31) was 18.2 µM (inactive) and the GI50 (XF498) was 15.8 µM (inactive).

With `C/C(CC(=O)Nc1cc(C)ccc1C)=N\NC(=O)c1ccncc1` the GI50 (786-0) was > 100 µM (inactive), the GI50 (A549) was > 100 µM (inactive) and the GI50 (CCRF-CEM) was > 100 µM (inactive). For the same compound, the GI50 (COLO 205) was > 100 µM (inactive), the GI50 (DLD-1) was > 100 µM (inactive) and the GI50 (EKVX) was > 100 µM (inactive). For the same compound, the GI50 (HCC 2998) was > 100 µM (inactive), the GI50 (HCT-116) was > 100 µM (inactive) and the GI50 (HL-60) was > 100 µM (inactive). For the same compound, the GI50 (HOP-62) was > 100 µM (inactive), the GI50 (HOP-92) was 79.6 µM (inactive) and the GI50 (HT-29) was > 100 µM (inactive). For the same compound, the GI50 (IGROV-1) was > 100 µM (inactive), the GI50 (K562) was > 100 µM (inactive) and the GI50 (KM-20L2) was > 100 µM (inactive). For the same compound, the GI50 (KM12) was > 100 µM (inactive), the GI50 (LOX IMVI) was > 100 µM (inactive) and the GI50 (LXFL 529) was > 100 µM (inactive). The GI50 (M14) was > 100 µM (inactive), the GI50 (M19-MEL) was > 100 µM (inactive) and the GI50 (MOLT-4) was > 100 µM (inactive). For the same compound, the GI50 (Malme-3M) was > 100 µM (inactive), the GI50 (NCI-H226) was > 100 µM (inactive) and the GI50 (NCI-H23) was > 100 µM (inactive). The GI50 (NCI-H460) was > 100 µM (inactive), the GI50 (NCI-H522) was 78 µM (inactive) and the GI50 (OVCAR-3) was > 100 µM (inactive). For the same compound, the GI50 (OVCAR-5) was > 100 µM (inactive), the GI50 (OVCAR-8) was > 100 µM (inactive) and the GI50 (RPMI-8226) was > 100 µM (inactive). For the same compound, the GI50 (RXF 393) was > 100 µM (inactive), the GI50 (RXF 631) was > 100 µM (inactive) and the GI50 (SF-268) was > 100 µM (inactive). The GI50 (SF-295) was > 100 µM (inactive), the GI50 (SF-539) was > 100 µM (inactive) and the GI50 (SK-MEL-28) was > 100 µM (inactive). For the same compound, the GI50 (SK-MEL-2) was > 100 µM (inactive), the GI50 (SK-MEL-5) was > 100 µM (inactive) and the GI50 (SK-OV-3) was > 100 µM (inactive). For the same compound, the GI50 (SNB-75) was > 100 µM (inactive), the GI50 (SNB-78) was > 100 µM (inactive) and the GI50 (SW-620) was > 100 µM (inactive). The GI50 (TK-10) was > 100 µM (inactive), the GI50 (U-251) was > 100 µM (inactive) and the GI50 (UACC-257) was > 100 µM (inactive). For the same compound, the GI50 (UACC-62) was > 100 µM (inactive) and the GI50 (UO-31) was > 100 µM (inactive).

In the case of `Cc1ncc(CCl)c(CCl)c1O`, the GI50 (786-0) is reported as > 100 µM (inactive), the GI50 (A498) is reported as > 100 µM (inactive) and the GI50 (ACHN) is reported as > 100 µM (inactive). For the same compound, the GI50 (CAKI-1) was > 100 µM (inactive), the GI50 (CCRF-CEM) was > 100 µM (inactive) and the GI50 (COLO 205) was > 100 µM (inactive). For the same compound, the GI50 (DLD-1) was > 100 µM (inactive), the GI50 (DMS-114) was > 100 µM (inactive) and the GI50 (DMS-273) was > 100 µM (inactive). For the same compound, the GI50 (HCC 2998) was > 100 µM (inactive), the GI50 (HCT-116) was > 100 µM (inactive) and the GI50 (HL-60) was > 100 µM (inactive). For the same compound, the GI50 (HOP-62) was > 100 µM (inactive), the GI50 (HOP-92) was > 100 µM (inactive) and the GI50 (IGROV-1) was > 100 µM (inactive). The GI50 (K562) was > 100 µM (inactive), the GI50 (LXFL 529) was > 100 µM (inactive) and the GI50 (M14) was > 100 µM (inactive). The GI50 (M19-MEL) was > 100 µM (inactive), the GI50 (MOLT-4) was > 100 µM (inactive) and the GI50 (Malme-3M) was > 100 µM (inactive). The GI50 (NCI-H226) was > 100 µM (inactive), the GI50 (NCI-H23) was > 100 µM (inactive) and the GI50 (NCI-H522) was > 100 µM (inactive). The GI50 (OVCAR-4) was > 100 µM (inactive), the GI50 (RPMI-8226) was > 100 µM (inactive) and the GI50 (RXF 631) was > 100 µM (inactive). The GI50 (SF-268) was > 100 µM (inactive), the GI50 (SF-539) was > 100 µM (inactive) and the GI50 (SK-MEL-28) was > 100 µM (inactive). The GI50 (SK-MEL-2) was > 100 µM (inactive), the GI50 (SK-OV-3) was > 100 µM (inactive) and the GI50 (SN12C) was > 100 µM (inactive). For the same compound, the GI50 (SNB-75) was > 100 µM (inactive), the GI50 (SR) was > 100 µM (inactive) and the GI50 (UACC-62) was > 100 µM (inactive). The GI50 (UO-31) was > 100 µM (inactive) and the GI50 (XF498) was > 100 µM (inactive).

Source: ChEMBL document CHEMBL1201862, “PubChem BioAssay data set” (2004)
